Reference: patent US9447081B2, “Substituted pyrimidines as pharmaceuticals and insecticides” (SHENYANG SINOCHEM AGROCHEMICALS R&D CO., LTD., priority 2012, dated 2016)

Assays:
cucumber gray mold = experiment: Fungicidal activity in vitro (96-well, High Through Put), cucumber gray mold; type: cell-based; conditions: 25 mg/L, 24 hours; for inhibition at 25 µg/mL: read-out: inhibition rate against cucumber gray mold
corn rust = experiment: Protectant activity in vivo (whole plant), corn rust; conditions: for pest or weed control at 400 µg/mL / pest or weed control at 100 µg/mL / pest or weed control at 25 µg/mL: Zea mays, 168 h, read-out: protectant activity against corn rust
Method: (§1) The method is as followed: The whole plant is used in this test. The compound is dissolved in a proper solvent to get mother solution. The proper solvent is selected from acetone, methanol, DMF and so on according to their dissolving capability to the sample. […] The testing solution is sprayed to the host plant by a special plant sprayer. The plant is inoculated with fungus after 24 hours. According to the infecting characteristic of fungus, the plant is stored in a humidity chamber and then transferred into greenhouse after infection is finished. And the other plants are placed in greenhouse directly. The activity of compound is obtained by eyeballing after 7 days in common.

wheat powdery mildew = experiment: Protectant activity in vivo (whole plant), wheat powdery mildew
Method: as §1

diamond back moth = experiment: Insecticidal activity against diamond back moth (airbrush spray); type: in vivo; conditions: mortality after 72 h; for pest or weed control at 600 µg/mL: read-out: control of the second instar larvae of diamond back moth
Method: (§2) Compounds were dissolved in mixed solvent (acetone:methanol=1:1), and diluted to required concentration with water containing 0.1% of tween 80.
(§3) Diamond back moth, armyworm, Green Peach Aphid and carmine spider mite were used as targets and the method of spraying by airbrush was used for determination of insecticidal biassays.
(§4) The method of spraying by airbrush: The cabbage leaves were made into plates of 2 cm diameter by use of punch. A test solution (0.5 ml) was sprayed by airbrush at the pressure of 0.7 kg/cm^2 to both sides of every plate. 10 Second instar larvae were put into the petri-dishes after the leaf disc air-dried and 3 replicates were set for each treatment. Then the insects were maintained in observation room (25° C., 60˜70% R.H.). Scores were conducted and mortalities were calculated after 72 h.

armyworm = experiment: Insecticidal activity against armyworm (airbrush spray); type: in vivo; conditions: second instar larvae, mortality after 72 h
Method: as §2, §3
as §4, with “corn” for “cabbage”

carmine spider mite = experiment: Acaricidal activity against carmine spider mite (airbrush spray); type: in vivo; conditions: Tetranychus cinnabarinus; 100 mg/L, adults, mortality after 72 hrs
Method: as §2, §3
Method: Broadbean shoots with two true leaves in pot were taken, the healthy adults of carmine spider mite were inoculated to the leaves. The adults were counted and then sprayed with airbrush at the pressure of 0.7 kg/cm^2 and at dose of 0.5 ml. 3 replicates were set for each treatment. And then they were maintained in standard observation room. Scores were conducted and mortalities were calculated after 72 hrs.

[1] = system: Green peach aphids (Myzus Persicae Sulzer); experiment: Activity against green peach aphid (airbrush foliar spray); type: in vivo; conditions: death rate after 48 h; for pest or weed control at 600 µg/mL / pest or weed control at 10 µg/mL / pest or weed control at 100 µg/mL: Myzus persicae, foliar, 48 h; for pest or weed control at 600 µg/mL / pest or weed control at 100 µg/mL: read-out: Insecticidal activity against peach aphid (control); for pest or weed control at 10 µg/mL / Insecticidal activity against peach aphid: 10 mg/L; for pest or weed control at 10 µg/mL: read-out: Insecticidal activity against peach aphid
Method: as §2, §3
Method: Filter papers were put in culture dishes (Diameter=6 cm), and water was dripped on filter papers for preserving moisture. Green peach aphids (Myzus Persicae Sulzer) were maintained on cabbage. Leaves (Diameter=3 cm) of approximately 15-30 aphids were put in the culture dishes. Bioactivity tests were used the method of Airbrush Foliar Spray, pressure=10 psi (0.7 kg/cm2), spray volume=0.5 mL. The studies were conducted at three constant temperatures 25±1 C. in incubator cabinets with 60±5% RH. Survey the survival aphids after 48 h and calculate the death rates.

cucumber downy mildew = experiment: Protectant activity in vivo (whole plant), cucumber downy mildew
Method: as §1

rice blast = experiment: microbe, parasite or virus in culture; type: cell-based
[2] = system: human bladder cancer cell line T24; experiment: In vitro cell inhibition assay against human cancer cell T24; type: cell-based; conditions: 10 μM, incubation for one week, crystal violet
Method: The tested compounds are dissolved in DMSO and diluted to designed concentration with culture medium.
The of cell culture technology in vitro was selected to evaluate growth inhibition rate against human bladder cancer cell line T24. 1000 to 3000 cells were inoculated into 24-well plate, followed by addition of cell culture medium (1 mL) known for technicans in this field (culture medium is RMPI-1640), after cells were cultured in incubator (CO2 5%, 37° C.) for 24 hours, then the tested compounds with designed concentration were added to each well. […] After incubation for one week, the culture medium was removed, the plate wells were washed with cold PBS once, fixed with 1% formalin at room temperature for 10 minutes, and washed with cold PBS one more time, followed by stain with 0.1% crystal violet for 30 minutes. Crystal violet can be recycled. The stained cells were washed with deionized water gently, dried in the air and reserved, were then incubated for 4 h. The inhibition rate was calculated according to the left cells of each treatment and contrast.
The inhibition rate=the left cells of each treatment/the left cells of contrast×100%

[3] = Triticum aestivum, 168 h, 400 mg/L, read-out: protectant activity against wheat powdery mildew
[4] = Cucumis sativus, 168 h, 400 mg/L, read-out: protectant activity against cucumber downy mildew
[5] = Pyricularia oryzae, 24 h, read-out: inhibition rate against rice blast
[6] = Cucumis sativus, 168 h, 100 mg/L, read-out: protectant activity against cucumber downy mildew
[7] = Triticum aestivum, 168 h, 25 mg/L, read-out: protectant activity against wheat powdery mildew
[8] = Triticum aestivum, 168 h, 100 mg/L, read-out: protectant activity against wheat powdery mildew

Row | SMILES | inhibition at 25 µg/mL (cucumber gray mold) [%] | pest or weed control at 400 µg/mL (corn rust; 400 mg/L) [%] | pest or weed control at 400 µg/mL (wheat powdery mildew; [3]) [%] | pest or weed control at 600 µg/mL (diamond back moth; 600 mg/L) [%] | pest or weed control at 600 µg/mL (armyworm; 600 mg/L) [%] | pest or weed control at 100 µg/mL (carmine spider mite) [%] | pest or weed control at 600 µg/mL ([1]; 600 mg/L) [%] | pest or weed control at 400 µg/mL (cucumber downy mildew; [4]) [%] | inhibition at 25 µg/mL (rice blast; [5]) [%] | pest or weed control at 100 µg/mL (corn rust; 100 mg/L) [%] | pest or weed control at 100 µg/mL ([1]; 100 mg/L) [%] | other results
1 | c1ccc2c(NCCc3ccc4c(c3)OCO4)ncnc2c1 [ACTA-1] | 50 | 0 | 0 | 40 | 40 | 0 | 0 |  |  |  |  | 
2 | COc1cc(CNc2ncnc(C)c2Cl)ccc1O [CK3] | 0 | 0 | 0 | 0 | 0 | 0 | 0 | 0 |  |  |  | 
3 | Cc1ncnc(NCCc2ccc(O)cc2)c1Cl [CK4] | 0 | 0 | 0 | 0 | 0 | 0 | 0 | 0 | 0 |  |  | 
4 | COc1ccc(CCNc2ncnc(C)c2Cl)cc1OC [CK8] | 0 | 100 | 100 | 0 | 0 |  | 0 | 98 | 50 | 0 |  | pest or weed control at 25 µg/mL (cucumber downy mildew; Cucumis sativus, 168 h, 25 mg/L, read-out: protectant activity against cucumber downy mildew): 0%; pest or weed control at 50 µg/mL (cucumber downy mildew; Cucumis sativus, 168 h, 50 mg/L, read-out: protectant activity against cucumber downy mildew): 20%; pest or weed control at 100 µg/mL (cucumber downy mildew; [6]): 45%; pest or weed control at 6.25 µg/mL (wheat powdery mildew; Triticum aestivum, 168 h, 6.25 mg/L, read-out: protectant activity against wheat powdery mildew): 0%; pest or weed control at 25 µg/mL (wheat powdery mildew; [7]): 10%; pest or weed control at 100 µg/mL (wheat powdery mildew; [8]): 80%
5 | Cc1c(Cl)c(NCCc2ccc3c(c2)OCO3)nc[n+]1CC(=O)c1ccc(Cl)cc1 [CK10] | 0 | 0 | 0 | 0 | 0 | 0 | 0 | 0 | 0 |  |  | 
6 | ClCc1ncnc(NCCc2ccc3c(c2)OCO3)c1Cl [CK11] | 50 | 85 | 0 | 0 | 0 | 25 | 88 | 30 |  | 35 | 0 | pest or weed control at 100 µg/mL (cucumber downy mildew; [6]): 0%; pest or weed control at 25 µg/mL (corn rust; 25 mg/L): 0%; pest or weed control at 10 µg/mL [1]: 0%
7 | c1ccc2c(NCc3ccc4c(c3)OCO4)ncnc2c1 [CK13] | 0 | 40 | 0 | 0 | 0 | 0 | 50 | 0 | 0 | 0 | 0 | pest or weed control at 10 µg/mL [1]: 0%
8 | Cc1ncnc(NCCc2ccc3c(c2)OCO3)c1Cl [Compound 5] |  |  |  |  |  |  |  |  |  |  |  | inhibition rate against rice blast (rice blast; in vitro, 25 mg/L, 24 hours): 80%; protectant activity against cucumber downy mildew (cucumber downy mildew; 12.5 mg/L): 100%; protectant activity against cucumber downy mildew (cucumber downy mildew; 25 mg/L): 100%; protectant activity against cucumber downy mildew (cucumber downy mildew; 50 mg/L): 100%; protectant activity against cucumber downy mildew (cucumber downy mildew; 100 mg/L): 100%; protectant activity against cucumber downy mildew (cucumber downy mildew; 400 mg/L): 100%; protectant activity against corn rust (corn rust; 6.25 mg/L): 100%; protectant activity against corn rust (corn rust; 25 mg/L): 100%; protectant activity against corn rust (corn rust; 100 mg/L): 100%; protectant activity against corn rust (corn rust; 400 mg/L): 100%; protectant activity against wheat powdery mildew (wheat powdery mildew; 6.25 mg/L): 75%; protectant activity against wheat powdery mildew (wheat powdery mildew; 25 mg/L): 85%; protectant activity against wheat powdery mildew (wheat powdery mildew; 100 mg/L): 100%; protectant activity against wheat powdery mildew (wheat powdery mildew; 400 mg/L): 100%; Insecticidal activity against peach aphid [1]: 0%; Insecticidal activity against peach aphid (control) ([1]; 100 mg/L): 52%; Insecticidal activity against peach aphid (control) ([1]; 600 mg/L): 100%; inhibition rate against bladder cancer cell line T24 [2]: 100%
9 | CCc1ncnc(NCCc2ccc3c(c2)OCO3)c1Cl [Compound 6] |  |  |  |  |  |  |  |  |  |  |  | inhibition rate against cucumber gray mold (cucumber gray mold): 80%; protectant activity against corn rust (corn rust; 6.25 mg/L): 90%; protectant activity against corn rust (corn rust; 25 mg/L): 100%; protectant activity against corn rust (corn rust; 100 mg/L): 100%; protectant activity against corn rust (corn rust; 400 mg/L): 100%; protectant activity against wheat powdery mildew (wheat powdery mildew; 6.25 mg/L): 85%; protectant activity against wheat powdery mildew (wheat powdery mildew; 25 mg/L): 90%; protectant activity against wheat powdery mildew (wheat powdery mildew; 100 mg/L): 95%; protectant activity against wheat powdery mildew (wheat powdery mildew; 400 mg/L): 100%; control of the second instar larvae of diamond back moth (diamond back moth; 100 mg/L): 90%; control of the second instar larvae of diamond back moth (diamond back moth; 600 mg/L): 100%; control of the armyworm (armyworm; 100 mg/L): 90%; control of the armyworm (armyworm; 600 mg/L): 90%; Insecticidal activity against peach aphid [1]: 100%; Insecticidal activity against peach aphid (control) ([1]; 100 mg/L): 100%; Insecticidal activity against peach aphid (control) ([1]; 600 mg/L): 100%; inhibition rate against bladder cancer cell line T24 [2]: 100%
10 | Cc1ncnc(NC(C)c2ccc3c(c2)OC(F)(F)O3)c1Cl (stereo not shown) [PC-1] | 50 | 70 | 100 | 0 | 0 | 51 | 52 |  |  | 20 | 0 | inhibition at 8.3 µg/mL (rice blast; [5]): 0%; pest or weed control at 25 µg/mL (corn rust; 25 mg/L): 0%; pest or weed control at 25 µg/mL (wheat powdery mildew; [7]): 0%; pest or weed control at 100 µg/mL (wheat powdery mildew; [8]): 80%
